Like-named read-outs stand apart in the source and are kept apart here.
Assay: Tissue half-life (t1/2) and Cmax in plasma, brain, kidney and liver after oral administration to CD-1 mice
Assay type: in vivo
Conditions: 30 mg/kg oral gavage; for half-life: male, mouse
Protocol: In vivo studies were conducted to observe the effect of the compounds of formula IA, IB, IIA, and IIIB in the subject animal. Male CD-1 mice, body weight of 20 grams at arrival, were used in these studies. Mice were given 30 mg/kg of compound in HPMC/Tween solution or suspension via oral gavage. Plasma, brain, and liver samples were collected at time periods of 1, 2, 4, 8, and 24 hours post dosing. One mouse was used per time point. Thus, a total of 5 mice were used for each compound tested. For sample collection, mice were euthanized with CO2. Blood samples were taken by cardiac puncture and kept on ice. Brain and liver samples were collected immediately after bleeding and the samples were kept on dry ice. For calculation of tissue half-lives (t1/2s), the terminal rate constant k was estimated by the absolute value of the slope of a log-linear regression of the terminal phase of the tissue concentration-time profile. The tissue half-life t1/2 is In(2)/k.
The following table includes t1/2 data for plasma, brain, kidney, and liver obtained after oral administration.

[1] = brain, read-out: Tissue Half-Lives, Brain (converted)
[2] = liver, read-out: Tissue Half-Lives, Liver (converted)
[3] = plasma, read-out: Tissue Half-Lives, Plasma (converted)

half-life [1]	half-life [2]	half-life [3]	Tissue Half-Lives, Kidney	SMILES	also measured
–	–	–	7.3 h	C[C@@H]1[C@@H](/N=C(/Nc2ccc3c(=O)n(CCc4ccc(Cl)cc4Cl)cnc3c2)N2CCNC(=O)C2)C[C@@H]2C[C@H]1C2(C)C [Example 260, N-{3-[2-(2,4-dichlorophenyl)ethyl]-4-oxo-3,4-dihydroquinazolin-7-yl}-3-oxo-N′-[(1R, 2S, 3S, 5S)-2,6,6-trimethylbicyclo[3.1.1]hept-3-yl]piperazine-1-carboximidamide]	–
–	–	–	3.3 h	COc1ccc(CCn2c(-c3cccnc3)nc3cc(N/C(=N/[C@H]4C[C@@H]5C[C@H]([C@@H]4C)C5(C)C)N4C[C@@H](C)N(O)[C@@H](C)C4)ccc3c2=O)c(F)c1 [Example 296, (3R, 5S)-N-[3-{2-[2-fluoro-4-(methyloxy)phenyl]eth-yl}-4-oxo-2-(3-pyridinyl)-3,4-dihydro-7-quinazolinyl]-4-hydroxy-3,5-dimethyl-N′-[(1R, 2S, 3S, 5S)-2,6,6-trimethylbicyclo[3.1.1]hept-3-yl]-1-piperazinecarboximida-mide]	–
15 h	4.3 h	5.4 h	–	COc1ccc(CCn2c(C#N)nc3cc(NC(=NC4C[C@H]5C[C@@H]([C@@H]4C)C5(C)C)N4CCN[C@@H](CF)C4)ccc3c2=O)c(F)c1 (stereo partly drawn) [Example 256, (3R)-N-{2-cyano-3-[2-(2-fluoro-4-methoxyphenyl)ethyl]-4-oxo-3,4-dihydroquinazolin-7-yl}-3-(fluoromethyl)-N′-[(1S, 2S, 5R)-2,6,6-trimethylbicyclo[3.1.1]hept-3-yl]piperazine-1-carboximidamide]	–

Continued, compound first:

SMILES	half-life [1]	half-life [2]	half-life [3]	Tissue Half-Lives, Kidney	also measured
C[C@@H]1[C@@H](N=C(Nc2ccc3c(=O)n(CCc4ccc(Cl)cc4)c(C4CCCNC4)nc3c2)N2CC(=O)N[C@@H](C)C2)C[C@H]2C[C@@H]1C2(C)C (stereo partly drawn) [Example 241, (3S)-N-{3-[2-(4-chlorophenyl)ethyl]-4-oxo-2-piperidin-3-yl-3,4-dihydroquinazolin-7-yl}-3-methyl-5-oxo-N′-[(1S, 2S, 3S, 5R)-2,6,6-trimethylbicyclo[3.1.1]hept-3-yl]piperazine-1-carboximidamide]	51 h	17 h	21 h	–	–
COc1ccc(CCn2c(-c3cccnc3)nc3cc(N/C(=N/C4C[C@H]5C[C@@H]([C@@H]4C)C5(C)C)N4CCN(C#N)[C@@H](C)C4)ccc3c2=O)c(F)c1 (stereo partly drawn) [Example 246, (3S)-4-cyano-N-{3-[2-(2-fluoro-4-methoxyphenyl)ethyl]-4-oxo-2-pyridin-3-yl-3,4-dihydroquinazolin-7-yl}-3-methyl-N-[(1S, 2S, 3S, 5R)-2,6,6-trimethylbicyclo[3.1.1]hept-3-yl]piperazine-1-carboximidamide]	–	–	–	–	Tissue Half-Lives, Brain (brain): 5.8 h
COc1ccc(CCn2c(NC3CC3)nc3cc(NC(=N[C@H]4C[C@H]5C[C@@H]([C@@H]4C)C5(C)C)N4CC(=O)N[C@@H](C)C4)ccc3c2=O)c(F)c1 [Example 224, (3S)-N-{2-(cyclopropylamino)-3-[2-(2-fluoro-4-methoxyphenyl)ethyl]-4-oxo-3,4-dihydroquinazolin-7-yl}-3-methyl-5-oxo-N′-[(1S, 2S, 3S, 5R)-2,6,6-trimethylbicyclo[3.1.1]hept-3-yl]piperazine-1-carboximidamide]	–	–	–	–	Tissue Half-Lives, Liver (liver): 3.1 h

From patent US7625909B2, “Substituted quinazolinone compounds” (Novartis Vaccines and Diagnostics, Inc., priority 2003, dated 2009)
